We go through six molecules from article PMC7037612, “Ketone Bodies Promote Amyloid-β1–40 Clearance in a Human in Vitro Blood–Brain Barrier Model” (International Journal of Molecular Sciences, 2020).

One series relates to BLEC monolayer. In words: BLEC monolayer integrity: endothelial permeability to Lucifer Yellow (PeLY). Format: cell-based, human. As to the method:
No significant pH variation was observed after KB treatment compared to the control. The integrity of the BLEC monolayer after 48 h of treatment with KBs was evaluated using the method described by Dehouck et al. (1992). Each coculture condition was performed in triplicate. The fluorescent integrity marker LY was used at a final concentration of 50 μM in RH buffer to obtain the endothelial permeability coefficient (Pe) from the apical-to-basolateral compartment. The fluorescence of LY in each compartment was measured using the excitation/emission wavelength (432/538 nm) using a microplate reader (Synergy H1). In this calculation method, both the filter without cell permeability (PSf = insert filter + matrigel coating) and filter plus cell permeability (PSt = insert filter + matrigel coating + ECs) were taken into account, according to the formula: 1/PSe = 1/[…] PS is the permeability x surface area product (in microliters per minute) obtained by dividing the volume cleared from the donor to the receiver compartment (in μL) for 1 h. […] balance (%) was calculated from the amount of compound recovered in the donor and receiver compartment at the end of the experiment divided by the total amount added in the donor compartment at time zero. To be taken into account for Pe determination, the mass balance should be between 80% and 120%.

A further series deals with MCT1. In words: Western blot of MCT1 protein level in BLECs. Format: cell-based, human. Particulars: 48 h, 20 mM AcAc, 20 mM βHB or ratio (20 mM AcAc/20 mM βHB), Western blot normalized to β-actin, at least three independent experiments.
Series [1] relates to [3H]inulin transport across BLECs. In words: [3H]inulin transport across BLECs (non-specific transport marker). Format: cell-based, human. Particulars: 400 nM [3H]inulin, 30 min, 37 °C; for effect on basolateral-to-apical transport of [3H]inulin after ratio KB treatment: 48 h ratio treatment, 200 nM RAP basolateral or 0.5 µM elacridar apical. As to the method: Forty-eight hours after KB treatments, the apical-to-basolateral and the basolateral-to-apical transport of Aβ1-40 across BLECs was investigated as previously described (Briefly, for apical-to-basolateral studies, filters were transferred to new 12-well plates containing 1.5 mL of RH-HSA 0.1% (the receiver solution) per well. In the insert corresponding to the apical compartment, 0.5 mL of RH-HSA 0.1% supplemented with 10 nM Aβ1-40Cy5 peptide was added (the donor solution). For basolateral-to-apical studies, filters were transferred to 12-well plates containing 1.5 mL of RH-HSA 0.1% supplemented with 10 nM fluorescent Aβ1-40Cy5 (the donor solution). In the apical compartment, 0.5 mL of RH-HSA 0.1% (the receiver solution) was added. In parallel, the apical-to-basolateral and the basolateral-to-apical transport of 400 nM [^3H]inulin was performed in the same way as the Aβ1-40Cy5 peptide transport, thus representing a paracellular marker. The BBB integrity was checked by measuring the PeLY as described in Section 4.6. […] At the end of the incubation period, aliquots of the donor and receiver solutions were collected, and the fluorescence compounds (Aβ1-40Cy5 and LY) were measured with a spectrofluorimeter (Synergy H1). The radioactivity of [^3H]inulin was measured using a scintillation counter (Hidex 300 SL, Hidex, Turku, Finland). The permeability (apparent permeability coefficient, cm.sec^−1) of Aβ1-40-Cy5 or [^3H]-inulin was calculated according to the following equation: (1) Papp = (k.V(R))/(A.60) as previously described. k was the transport rate (min^−1) defined as the slope obtained by linear regression of the cumulative fraction absorbed (FAcum) as a function of time (min), V(R) was the volume in the receiver chamber (mL), and A was the area of the filter (cm^2). Determination of the cumulative fraction absorbed (amount permeated), FAcum versus time, FAcum was calculated from: (2) FAcum = ∑ (C(Ri))/(C(Di)), where C(Ri) was the receiver concentration at the end of the interval i and C(Di) was the donor concentration at the beginning of interval i. […]

Series [2] has as its system Aβ1–40Cy5 peptide transport across BLECs. Description: Aβ1–40Cy5 peptide transport across BLECs. Format: cell-based, human. Particulars: 48 h ratio treatment; 200 nM RAP in basolateral compartment (LRP1 inhibitor) or 0.5 µM elacridar in apical compartment (P-gp inhibitor); 10 nM Aβ1–40Cy5, 30 min, 37 °C. As to the method:
Forty-eight hours after KB treatments, the apical-to-basolateral and the basolateral-to-apical transport of Aβ1-40 across BLECs was investigated as previously described (Briefly, for apical-to-basolateral studies, filters were transferred to new 12-well plates containing 1.5 mL of RH-HSA 0.1% (the receiver solution) per well. In the insert corresponding to the apical compartment, 0.5 mL of RH-HSA 0.1% supplemented with 10 nM Aβ1-40Cy5 peptide was added (the donor solution). For basolateral-to-apical studies, filters were transferred to 12-well plates containing 1.5 mL of RH-HSA 0.1% supplemented with 10 nM fluorescent Aβ1-40Cy5 (the donor solution). […] At the end of the incubation period, aliquots of the donor and receiver solutions were collected, and the fluorescence compounds (Aβ1-40Cy5 and LY) were measured with a spectrofluorimeter (Synergy H1). The radioactivity of [^3H]inulin was measured using a scintillation counter (Hidex 300 SL, Hidex, Turku, Finland). […] Determination of the cumulative fraction absorbed (amount permeated), FAcum versus time, FAcum was calculated from: (2) FAcum = ∑ (C(Ri))/(C(Di)), where C(Ri) was the receiver concentration at the end of the interval i and C(Di) was the donor concentration at the beginning of interval i. […] The apical-to-basolateral and the basolateral-to-apical Papp were determined by Equation (1) for each molecule. […]

In a further series the test system is BLECs. In words: Immunofluorescence of tight junction proteins ZO-1 and claudin-5. The settings on record: 48 h treatment. The format is cell-based, human. As to the method:
After 48 h of treatments with or without KBs, BLECs were fixed and permeabilized as described in Table 1. Then, a 30-min blocking with PBS-CMF (0.2 g·L^−1 KH2PO4 , 8.0 g·L^−1 NaCl, 2.87 g·L^−1 Na2HPO4-12H2O, and 0.2 g·L^−1 KCl) with 10% (v/v) normal goat serum (NGS) was performed. Then, cells were incubated for 60 min with the primary antibody in PBS-CMF supplemented with 2% NGS at room temperature (RT), against the target protein as described in Table 1.
After three washes in PBS-CMF supplemented with 2% NGS, the cells were incubated with secondary polyclonal antibody (goat anti-rabbit Alexa 568, A11036, Molecular Probes, Eugene, OR, USA) diluted 1:500 in PBS-CMF supplemented with 2% NGS in the dark for 30 min at RT. Hoechst 33358 was used for nuclei staining. After mounting with Mowiol (Sigma-Aldrich) containing 1,4-diazabicyclo [2.2.2]octane (Sigma-Aldrich), images were taken using a Leica microscope (DMRD; Leica Microsystems, Wetzlar, Germany) and processed using ImageJ32 software.

Series [3] deals with human in vitro BBB model (BLECs). In words: βHB concentration in the compartments of the in vitro BBB model. The settings on record: 20 mM βHB added apically, 48 h. The format is in vitro ADME. As to the method:
(§1) During this time, the glucose and βHB concentrations were measured in both the apical compartment and the basolateral compartment. The Precision-Xtra meter (Abbott Labs, Abbott Park, IL, USA) with a glucose or β-ketone sticks was used. In these assays, the glucose and βHB concentrations measured by the sticks were representative of the glucose and βHB present in the culture medium. Data were expressed in mmol·L^−1 for βHB and in g·L^−1 for glucose. The βHB concentration within BLECs was measured at 48 h following the treatment. Briefly, after medium removal, BLECs were washed twice with RH buffer and lysed with RIPA lysis buffer (Millipore Corporation, Burlington, MA, USA). The βHB concentration in the BLECs was normalized by the protein amount using Bradford assay (Bio-rad, Munich, Germany). The amount of βHB into the supernatant was assayed using β-ketone sticks, as described above. The βHB concentration was verified in the culture medium without cells at 37 °C and 5% CO2 to ensure the stability of βHB.

A short description of series [4]: Stability of βHB in culture medium. The settings on record: 37 °C, 5% CO2, over 48 h, β-ketone sticks. Format: physicochemical. As to the method: as §1
The subject of another series is GLUT1. In words: Western blot of GLUT1 protein level in BLECs. Format: cell-based, human. The settings on record: 48 h, 20 mM βHB or ratio, Western blot normalized to β-actin, at least three independent experiments.
For a further series, the system named is LRP1. In words: Western blot of LRP1 protein level in BLECs. The settings on record: 48 h, 20 mM βHB or ratio, Western blot normalized to β-actin, at least three independent experiments. The format is cell-based, human.
For the next series, the system named is PICALM. In words: Western blot of PICALM protein level in BLECs. The format is cell-based, human. Particulars: 48 h, 20 mM βHB or ratio, Western blot normalized to β-actin, at least three independent experiments.
In another series the test system is PC12 cells. Particulars: PC12 cells exposed in 0–20 mM βHB; cited from earlier work. An excerpt: For a few years now, there has been an increased focus on the role of the transport of Aβ peptides across the blood–brain barrier (BBB). It appears that increasing the clearance or reducing the entry of Aβ peptides in the brain could be a promising therapeutic approach for counteracting the pathogenic processes observed in AD [52]. In recent years, there has been mounting interest in the possible utilization of a ketogenic diet (KD) or ketone body (KB) supplementations in the treatment of AD [53, 54]. On the basis of KBs’ beneficial effects on the CNS, and the lack of publ ...

With Lucifer Yellow CH dilithium salt, the “endothelial lucifer yellow permeability (PeLY), control conditions” value in the series with BLEC monolayer (untreated BLECs, LY 50 µM in RH buffer, apical-to-basolateral, 1 h, fluorescence 432/538 nm, mean ± SEM, three independent experiments in triplicate) is reported as 0.92 ± 0.03 × 10^−3 cm∙min^−1.
With `CC(=O)CC(=O)O` [AcAc, acetoacetate], the “decrease in PeLY compared to the control” value in the series on BLEC monolayer (20 mM, 48 h treatment of BLECs, p-value ≤ 0.0001) is listed as 14.6%. Further, the “increase of MCT1 protein level compared to the control” value in the series on MCT1 came to 35.9%. In addition, the “decrease of apical-to-basolateral [3H]inulin transport” value in series [1] (after 48 h 20 mM AcAc, scintillation counting, p-value = 0.0005) is given as 12.9%.
Take `COc1cc2c(cc1OC)CN(CCc1ccc(NC(=O)c3cccc4c(=O)c5cccc(OC)c5[nH]c34)cc1)CC2` [elacridar, Elacridar, reference compound]: the “effect on the increased basolateral-to-apical Aβ1–40Cy5 peptide transport after ratio KB treatment” value in [2] is on record as “abolished”. Also, the “effect on basolateral-to-apical transport of [3H]inulin after ratio KB treatment” value in series [1] is “not affected”.
In the case of `OC[C@@H](O)[C@@H](O)[C@H](O)[C@H](O)CO` [mannitol], the “increase in PeLY values compared to non-treated cells” value in the series on BLEC monolayer (mannitol treatment of the human in vitro BBB model, p-value ≤ 0.0001) came out at 620.6%. The “staining of tight junction proteins ZO-1 and claudin-5 (intercellular contacts)” value in the series on BLECs is “interruption in the staining for ZO-1 and claudin-5 protein”.
As to `CC(O)CC(=O)O` (stereo not drawn) [βHB, Beta-hydroxybutyric acid], in series [3], the “βHB concentration in the BLEC” value is ~ 0.5 mM, the “βHB concentration in the apical compartment” value is on record as ~ 8.5 mM and the “βHB concentration in the basolateral compartment” value was ~ 6.6 mM. Also, in [3] (37 °C, 5% CO2), the “initially added βHB not detectable” value was 21.4%. Besides, in series [3] (37 °C, 5% CO2, RIPA lysate, β-ketone sticks, mean of three independent experiments), the “βHB in BLECs, % of the total amount of βHB” value amounted to 2.4%. For the same molecule, the “βHB in the apical (luminal) compartment, % of the total amount of βHB” value in series [3] (37 °C, 5% CO2, β-ketone sticks (Precision-Xtra meter), mean of three independent experiments) is listed as 42.9%. In [3] (37 °C, 5% CO2, β-ketone sticks, mean of three independent experiments), the “βHB in the basolateral (abluminal) compartment, % of the total amount of βHB” value turned out to be 33.3%. Further, in series [4], the “stability of βHB in the culture medium” value was “stable”. Also, in the series on MCT1, the “increase of MCT1 protein level compared to the control” value was 24.9%. Also, the “increase of GLUT1 protein level compared to the control” value in the series on GLUT1 is on record as 51.9%. The “upregulation of LRP1 protein level compared to the control” value in the series on LRP1 is given as 109.3%. For the same molecule, the “increase of PICALM protein level compared to the control” value in the series on PICALM came to 39.1%. Also, in the series on PC12 cells, the cell viability is given as 95%.

B1: RAP: Receptor-associated protein, human, recombinant, E.coli; standard inhibitor for LRP1 (protein, UniProt P30533 35-357, looked up)
Alpha-2-macroglobulin …: YSREKNQPKPSPKRESGEEFRMEKLNQLWEKAQRLHLPPVRLAELHADLKIQERDELAWKKLKLDGLDEDGEKEARLIRNLNVILAKYGLDGKKDARQVTSNSLSGTQEDGLDDPRLEKLWHKAKTSGKFSGEELDKLWREFLHHKEKVHEYNVLLETLSRTEEIHENVISPSDLSDIKGSVLHSRHTELKEKLRSINQGLDRLRRVSHQGYSTEAEFEEPRVIDLWDLAQSANLTDKELEAFREELKHFEAKIEKHNHYQKQLEIAHEKLRHAESVGDGERVSRSREKHALLEGRTKELGYTVKKHLQDLSGRISRARHNEL
For B1, the “effect on the increased basolateral-to-apical Aβ1–40Cy5 peptide transport after ratio KB treatment” value in [2] is “abolished”. Moreover, the “effect on basolateral-to-apical transport of [3H]inulin after ratio KB treatment” value in series [1] was “not affected”.

For orientation: cell viability means the share of living cells, or the viability signal relative to a control.
